Measurements: patent publication US20220304964A1, “PARA-AMINOHIPPURIC ACID (PAH) AS A RENAL PROTECTIVE SUBSTANCE” (ITM Isotope Technologies Munich SE, priority 2019, published 2022)
Read-outs that look alike come from different tables or passages of the source.

Assays:
[1] = Radiolabel stability of ^99mTc-Etarfolatide (HPLC, ITLC-SG); assay type: physicochemical; settings: 24 h post-preparation
Method: Radiolabeling efficiency and stability was determined using: (i) Instant thin layer chromatography-silica gel (ITLC-SG) with water (Rf of ^99mTc-Etarfolatide and free pertechnetate=0.9-1.0; Rf of colloid=0.0-0.1) and acetone (Rf of free pertechnetate=0.9-1.0; Rf of colloid and ^99mTc-Etarfolatide=0.0-0.1) as the mobile phases and (ii) RP-HPLC: Solvent A: 0.1% TFA in H2O. Solvent B: 0.1% TFA in AcCN; Gradient Elution, flow rate 1 mL/min.
On each day of experimentation, a new radiolabeling procedure was performed with approximately the same ^99mTc activity.
The volume of the radiolabeled folate was measured to be 1300 μL, while the activity was 734 MBq (Day of experimentation: March 4th). A sample corresponding to 300 MBq (i.e. 15 MBq×20 mice) was prepared. 531 μL were taken from the radiolabeled folate, which was diluted with either 1469 μL Saline or 1469 μL PAH (2000 μL 99mTc-etarfolatide, 100 μL/15 MBq per mouse). Before injection, the sample was filtered through a […] sterile filter. The injected 15 MBq/mouse corresponds to 2.04 μg Etarfolatide/mouse (injected quantity of Etarfolatide was kept stable throughout the experiment).

rats = settings: Natochin et al. 1989; cited from earlier work
female mice = settings: cited from earlier work
male Wistar rats = assay: Ex-vivo organ distribution of [^177Lu-DOTA^o-Tyr3]-octreotide after pre-/co-injection of NaCl, Arg-Lys or PAH; assay type: in vivo; settings: 5 min and 60 min p.i., N=5, with respect to NaCl infusions
Method: All animals were pre-injected 10 min before the radiotracer injection with 1.0 mL of NaCl, Arg-Lys or PAH.
The animals were injected and sacrificed after 5 min or 60 min. Organs and tissue of interest were harvested and measured for activity. […] The average injected activity was 4.49±0.38 MBq/kg body weight (5 min) and 159±13 MBq/kg body weight (5 min) for the SPECT and 4.19±0.57 MBq/kg body weight (60 min) or 139±8 MBq/kg body weight for the SPECT animals (60 min).
(§1) For statistical analysis Microsoft Excel 2010 and Graphpad Prism 6.05 were employed. Data are presented as median and [25% and 75% percentile] and mean and standard deviation (SD) or standard error of mean (SEM). For comparison, ordinary one way ANOVA and Tukey's multiple comparisons test, two-sample two-tailed t-test were employed. Significance was accepted with P<0.05.
The results are graphically illustrated in FIG. 5.

AR42J tumor mouse model = assay: Comparative biodistribution of ^177Lu-DOTATOC i.v. after i.p. PAH or saline; assay type: in vivo, CD1 nude mice; settings: FIG. 9
Method: Mice (3 animals per group) were sacrificed at 0.5 h, 1 h, 2 h, and 4 h, respectively. The organs were quickly rinsed in 0.9% NaCl and dried before being weighed and counted to eliminate possible contaminating blood. […] Data from organ/tissue counting are expressed as percentage of injected dose (% ID/g)).

healthy Wistar rats [2] = assay: PET/CT kidney and blood radioactivity of ^68Ga-labeled HBED-CC-PSMA-11 with co-injection of PAH or saline; assay type: in vivo; settings: PAH 200 mg/mL vs 0.9% NaCl; 0.1, 0.5, 1, 2, 4 h; FIG. 8
Method: (§2) The tracer distribution of the radiolabeled test compounds were performed in two distinct cohorts of healthy Wistar rats with focus on the kidney uptake/clearance and blood levels. […] Each cohort comprises at least 3 rats for statistic matters.
Mice were injected with diagnostic ^68Ga-labeled PSMA-11 conjugated with acyclic chelator HBED-CC, and co-injected with PAH (200 mg/mL) or saline (0.9% NaCl) as a control. The percentage of injected radioactivity present in kidney (upper lane) and blood (lower lane) over time was determined according to the above protocol. The results are graphically illustrated in FIG. 8.

[3] = system: Laboratory Rat (Rattus norwegicus), Lewis; assay: SPECT biodistribution of ^177Lu-PSMA I&T with kidney protection agents (PAH, Probenecid, saline); assay type: in vivo; settings: for radioactivity in kidney cells (^177Lu-PSMA I&T): compared to the saline control (PAH also compared to probenecid), FIGS. 11 to 14
From the text: The protocol was executed in a way to test the radioactivity concentration of the kidneys in groups of animals injected with one TA but three different KP agents in three separate groups. Thus, the following matrix of experimental groups was formed.

healthy Wistar rats [4] = assay: Kidneys uptake of [^177Lu-DOTA^o-Tyr3]-octreotide by quantitative small animal SPECT with co-infusion of kidney protection agent; assay type: in vivo; settings: vs 0.9% NaCl co-infusion
Method: Imaging acquisition was performed after 0.5 h, 1 h, 4 h, 8 h, 24 h p.i.
as §1

healthy Wistar rats [5] = assay: SPECT/CT kidney and blood (heart) radioactivity of ^177Lu-labeled DOTA compounds with co-injection of PAH or saline; assay type: in vivo; settings: ^177Lu-DOTA-Affilin
Method: as §2
Testing parameters were provided for each compound, RCP >95%.
The percentage of injected radioactivity present in the kidneys over time was determined according to the above protocol. The results are graphically illustrated in FIG. 6.
The percentage of injected radioactivity present in blood over time was determined according to the above protocol. The results are graphically illustrated in FIG. 7.

mice = assay: Comparative biodistribution of ^99mTc-Etarfolatide given with PAH or saline; assay type: in vivo; settings: PAH IP 10 min prior + tracer diluted in PAH vs saline; after 30 min; FIG. 10
Method: 30 mice (male and female) were randomly assigned to two groups.
Group A: The mice were injected with ^99mTc Etarfolatide diluted in PAH (2.04 μg Etarfolatide/mouse) after having received an IP injection of PAH 10 min prior to radiotracer injection. Five time-points were assessed: 5 min, 30 min, 1 h, 2 h, 4 h (3 mice per time-point).
Group B: The mice were injected with ^99mTc Etarfolatide diluted in saline (2.04 μg Etarfolatide/mouse) after having received an IP injection of saline 10 min prior to radiotracer injection. Five time-points were assessed: 5 min, 30 min, 1 h, 2 h, 4 h (3 mice per time-point).

[6] = low plasma concentrations (1.0 to 2.0 mg/100 mL); average; cited from earlier work
patients = settings: cited from earlier work
[7] = group B (PAH) compared to group A (NaCl)
[8] = at all time points (0.5-4 h), vs saline

Nc1nc2ncc(CNc3ccc(C(=O)N[C@H](CCC(=O)NC[C@@H]4[NH][99Tc]56(=[O])[S]C[C@@H](C(=O)O)[N]5C(=O)[C@H](CC(=O)O)[N]6C4=O)C(=O)O)cc3)nc2c(=O)[nH]1 [^99mTc-Etarfolatide]
Stability of radiolabel by HPLC [1]: no loss of radiolabel

NS(=O)(=O)c1cc(C(=O)O)c(NCc2ccco2)cc1Cl [fursosemide]
effect on cisplatin's nephrotoxic effects (rats): reduce cisplatin's nephrotoxic effects

C=C(CC)C(=O)c1ccc(OCC(=O)O)c(Cl)c1Cl [ethacrynic acid]
effect on cisplatin's nephrotoxic effects (rats): reduce cisplatin's nephrotoxic effects

C[N+](C)(C)CCO.[Cl-] [Choline chloride]
effect on cisplatin's nephrotoxic effects (rats): reduce cisplatin's nephrotoxic effects

Nc1ccc(C(=O)NCC(=O)O)cc1 [PAH, para-aminohippuric acid]
intravenous LD 50 (female mice): 7220 mg/kg
ex-vivo uptake of [^177Lu-DOTA^o-Tyr3]-octreotide in the kidneys (male Wistar rats): significantly reduced the uptake in the kidneys
^177Lu-DOTATOC uptake in kidneys (AR42J tumor mouse model; group B (PAH 20% i.p. 50 μL + ^177Lu-DOTATOC/PAH) vs group A (NaCl 0.9%), 0.5-4 h): significant decrease
^177Lu-DOTATOC level in blood (AR42J tumor mouse model; [7]): significantly increased
^177Lu-DOTATOC level in tumor (AR42J tumor mouse model; [7]): significantly increased
kidney uptake of ^68Ga-labeled HBED-CC conjugated PSMA-11 (healthy Wistar rats [2]): significant reduction of kidney uptake
renal cortex radioactivity (^177Lu-PSMA I&T) [3, 8]: reduced radioactivity
renal medulla radioactivity (^177Lu-PSMA I&T) [3, 8]: reduced radioactivity
radioactivity in kidney cells (^177Lu-PSMA I&T) [3]: marked reduction of radioactivity
effect on cisplatin's nephrotoxic effects (rats): reduce cisplatin's nephrotoxic effects
kidney uptake reduction of [^177Lu-DOTA^o-Tyr3]-octreotide (healthy Wistar rats [4]; 0.5 h post injection): 50%
kidney uptake reduction of [^177Lu-DOTA^o-Tyr3]-octreotide (healthy Wistar rats [4]; after 8 h): 56%
kidney uptake reduction of [^177Lu-DOTA^o-Tyr3]-octreotide (healthy Wistar rats [4]; after 24 h): 50%
kidney uptake of Affilin (healthy Wistar rats [5]; PAH 200 mg/mL vs 0.9% NaCl, versus the other compounds tested): less prominently reduced
blood activity of Affilin (percentage of injected radioactivity in blood) (healthy Wistar rats [5]; co-injected PAH 200 mg/mL vs 0.9% NaCl, FIG. 7): significant increase of blood activity
kidney uptake of radiolabeled compounds (percentage of injected radioactivity in kidneys) (healthy Wistar rats [5]; ^177Lu-DOTA-RGD, ^177Lu-DOTA-Sargastrin, ^177Lu-DOTA-JR11, PAH 200 mg/mL vs 0.9% NaCl, 0.5, 1, 4, 24 h, FIG. 6): significant effect in reduction of kidney uptake
renal uptake of ^99mTc-Etarfolatide (mice): decreased renal uptake
PAH cleared by the kidneys from the renal blood stream by a single circulation [6]: 90%

NCCCC[C@H](N)C(=O)O [lysine]
Kidney uptake reduction of radiolabeled octreotide (patients; 25 g of lysine, P<0.04): 17%+/−9%
Kidney uptake reduction of radiolabeled octreotide (patients; 50 g of lysine, P<0.04): 15%+/−13%
serum potassium levels (patients; 75 g of lysine (Lys75) or 25 g lysine plus 25 g arginine (LysArg)): rose significantly
Kidney uptake reduction of radiolabeled octreotide (patients; 75 g of lysine, P<0.001): 44%+/−11%

CCCN(CCC)S(=O)(=O)c1ccc(C(=O)O)cc1 [Probenecid]
radioactivity in kidney cells (^177Lu-PSMA I&T) [3]: no effect
